Molecules are shown by their SMILES. Where two headings read alike, the source gives them in different places.

Experiment [1] deals with NS3/4A protease gt 1b A156V (Hepatitis C virus genotype 1b, UniProt P26663, A1182V). The experiment is described as follows: HCV NS3 protease time-resolved fluorescence (TRF) assay, NS3/4A inhibitory activity (Ki), gt 1b A156V mutant. In kind it is biochemical, hepatitis C virus (HCV). In short, it runs like this:
(§1)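 NS3/4A protease (gt 1b, 1b A156V, 3a) pre-incubated 30 min with inhibitor in 50 mM HEPES pH 7.5, 150 mM NaCl, 15% glycerol, 0.15% Triton X-100, 10 mM DTT, 0.1% PEG 8000; 100 nM TRF peptide substrate, 1 h at room temperature, quenched with MES pH 5.5. Time-resolved fluorescence (ex 340/em 615 nm); four-parameter IC50 converted to Ki via IC50=Ki(1+[S]/KM).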

For another experiment, the system named is gt 1b Replicon. As to the kind of experiment: HCV replicon assay, compound inhibitory potency (Replicon EC50). The note with it: Hepatitis C virus, GT1B. The class given is cell-based. Put shortly:
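Stable replicon-harboring cells (neomycin phosphotransferase, some luciferase:Neor fusion) plated with compound dilution series without G418, incubated 24-48 h. Read-out: RNA by 32P-probe protection or TaqMan normalized to cyclophilin A RNA, or luciferase activity; EC50 as percent of DMSO control, four-parameter fit.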

Another experiment addresses NS3/4A protease gt 1b (Hepatitis C virus genotype 1b, UniProt P26663). As to the kind of experiment: HCV NS3 protease time-resolved fluorescence (TRF) assay, NS3/4A inhibitory activity (Ki), gt 1b. The class given is biochemical. The note with it: genotype 1b NS3/4A; read-out: Enzyme Activity gt 1b Ki. In short, it runs like this: as §1
The next experiment has as its target NS3/4A protease gt 3a (Hepatitis C virus genotype 3a, UniProt Q81258). The experiment is described as follows: HCV NS3 protease time-resolved fluorescence (TRF) assay, NS3/4A inhibitory activity (Ki), gt 3a. In kind it is biochemical. The following applies: genotype 3a NS3/4A; read-out: Enzyme Activity gt 3a Ki. In short, it runs like this:
as §1

On to `C=C[C@@H]1C[C@]1(NC(=O)[C@@H]1C[C@@H]2CN1C(=O)[C@H](C(C)(C)C)NC(=O)O[C@]1(C)C[C@H]1CCC/C=C/c1cccc3c1CN(C3)C(=O)O2)C(=O)NS(=O)(=O)C1(C)CC1` [Example I-32, (1aR,5S,8S,10R,19E,23aR)-5-tert-butyl-N-[(1R,2S)-2-ethenyl-1-{[(1-methylcyclopropyl)sulfonyl]carbamoyl}cyclopropyl]-1a-methyl-3,6,12-trioxo-1a,3,4,5,6,9, 10,14,21,22,23,23a-dodecahydro-1H,8H-7,10:13,15-dimethanocyclopropa [n][4,13,2,8,11]benzo dioxatriazacyclo docosine-8(12H)-carboxamide], for which the Ki in experiment [1] was determined as 1 nM; on NS3/4A protease gt 1b, 0.03 nM; on NS3/4A protease gt 3a it was 1.8 nM. The EC50 in the experiment with gt 1b Replicon (10% Fetal Bovine Serum, read-out: gt 1b Replicon EC50 10% FBS) worked out at 1 nM; with gt 1b Replicon (50% Normal Human Serum, read-out: gt 1b Replicon EC50 50% NHS) it was 11 nM.

The term Ki denotes a dissociation constant, usually derived from enzyme kinetics or from competition with a known ligand. The EC50 is the concentration needed to bring the measured effect to its halfway point.
